According to PubChem BioAssay AID1963976 (Molecular Pharmacology Branch, DTP, NCI, 2024):
Where “and” joins values, the source holds several entries; their conditions need not be identical. Equal entries are not always repeated.

Tested on: 435261-313-R-J1-PDC tumor spheroid viability
Test: Anticancer human tumor 435261-313-R-J1-PDC patient-derived colon adenocarcinoma cell line growth inhibition [PI3K]
Conditions: spheroids with HUVEC and MSC; for viability, T/C: stronger effect = lower value
Outline: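 Combination activity was assessed by viability in multicellular tumor spheroids carrying HUVEC and MSC components. Agents were tested with PI3K inhibitors from a Cmax-based top dose (or 10 microM) downward in half-log increments.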

[1] = curve of first compound, second compound 0.00316 µM
[2] = curve of first compound, second compound 0.01 µM
[3] = curve of first compound, second compound 0.0316 µM
[4] = curve of first compound, second compound 0.1 µM
[5] = curve of first compound, second compound 0.316 µM
[6] = curve of first compound, second compound 1 µM
[7] = second compound 0.00316 µM, first compound 0.0316 µM
[8] = second compound 0.00316 µM, first compound 0.1 µM
[9] = second compound 0.00316 µM, first compound 0.316 µM
[10] = second compound 0.00316 µM, first compound 1 µM
[11] = second compound 0.00316 µM, first compound 3.16 µM
[12] = second compound 0.00316 µM, first compound 10 µM
[13] = second compound 0.01 µM, first compound 0.0316 µM
[14] = second compound 0.01 µM, first compound 0.1 µM
[15] = second compound 0.01 µM, first compound 0.316 µM
[16] = second compound 0.01 µM, first compound 1 µM
[17] = second compound 0.01 µM, first compound 3.16 µM
[18] = second compound 0.01 µM, first compound 10 µM
[19] = second compound 0.0316 µM, first compound 0.0316 µM
[20] = second compound 0.0316 µM, first compound 0.1 µM
[21] = second compound 0.0316 µM, first compound 0.316 µM
[22] = second compound 0.0316 µM, first compound 1 µM
[23] = second compound 0.0316 µM, first compound 3.16 µM
[24] = second compound 0.0316 µM, first compound 10 µM
[25] = second compound 0.1 µM, first compound 0.0316 µM
[26] = second compound 0.1 µM, first compound 0.1 µM
[27] = second compound 0.1 µM, first compound 0.316 µM
[28] = second compound 0.1 µM, first compound 1 µM
[29] = second compound 0.1 µM, first compound 3.16 µM
[30] = second compound 0.1 µM, first compound 10 µM
[31] = second compound 0.316 µM, first compound 0.0316 µM
[32] = second compound 0.316 µM, first compound 0.1 µM
[33] = second compound 0.316 µM, first compound 0.316 µM
[34] = second compound 0.316 µM, first compound 1 µM
[35] = second compound 0.316 µM, first compound 3.16 µM
[36] = second compound 0.316 µM, first compound 10 µM
[37] = second compound 1 µM, first compound 0.0316 µM
[38] = second compound 1 µM, first compound 0.1 µM
[39] = second compound 1 µM, first compound 0.316 µM
[40] = second compound 1 µM, first compound 1 µM
[41] = second compound 1 µM, first compound 3.16 µM
[42] = second compound 1 µM, first compound 10 µM
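Further: spheroids exposed to compounds for 7 days.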

Which results are given for `CC1(C)CCC(CN2CCN(c3ccc(C(=O)NS(=O)(=O)c4ccc(NCC5CCOCC5)c([N+](=O)[O-])c4)c(Oc4cnc5[nH]ccc5c4)c3)CC2)=C(c2ccc(Cl)cc2)C1` + CC(Nc1ccc2c(c1)OCCn1cc(N3C(=O)OCC3C(F)F)nc1-2)C(N)=O?
IC50 [1]: 5.55 µM; IC50 [2]: 6.17 µM; IC50 [3]: 4.21 µM; IC50 [4]: < 0.0316 µM; IC50 [5]: < 0.0316 µM; IC50 [6]: < 0.0316 µM; viability, T/C [7]: 69.6%; viability, T/C [8]: 90.5%; viability, T/C [9]: 79.2%; viability, T/C [10]: 127%; viability, T/C [11]: 81.3%; viability, T/C [12]: 17.4%; viability, T/C [13]: 81.3%; viability, T/C [14]: 77.5%; viability, T/C [15]: 79%; viability, T/C [16]: 90.8%; viability, T/C [17]: 95.9%; viability, T/C [18]: 24.8%; viability, T/C [19]: 58.7%; viability, T/C [20]: 59.2%; viability, T/C [21]: 55.1%; viability, T/C [22]: 65.8%; viability, T/C [23]: 74.4%; viability, T/C [24]: 11.7%; viability, T/C [25]: 34.1%; viability, T/C [26]: 39.8%; viability, T/C [27]: 51.5%; viability, T/C [28]: 35.1%; viability, T/C [29]: 33.6%; viability, T/C [30]: 10.8%; viability, T/C [31]: 23.1%; viability, T/C [32]: 23.3%; viability, T/C [33]: 22.3%; viability, T/C [34]: 24%; viability, T/C [35]: 26.2%; viability, T/C [36]: 8.22%; viability, T/C [37]: 16.4%; viability, T/C [38]: 20%; viability, T/C [39]: 14.9%; viability, T/C [40]: 18.3%; viability, T/C [41]: 18.8%; viability, T/C [42]: 7.07%

Which results are given for `CC(Cn1ccc(-c2ccc(C#N)c(Cl)c2)n1)NC(=O)c1cc(C(C)O)[nH]n1` (stereo unspecified) + CC(Nc1ccc2c(c1)OCCn1cc(N3C(=O)OCC3C(F)F)nc1-2)C(N)=O?
IC50 [1]: > 10 µM; IC50 [2]: > 10 µM; IC50 [3]: > 10 µM; IC50 [4]: < 0.0316 µM; IC50 [5]: < 0.0316 µM; IC50 [6]: < 0.0316 µM; viability, T/C [7]: 75.6%; viability, T/C [8]: 79.1%; viability, T/C [9]: 93.8%; viability, T/C [10]: 106%; viability, T/C [11]: 94.3%; viability, T/C [12]: 106%; viability, T/C [13]: 53.1%; viability, T/C [14]: 90.6%; viability, T/C [15]: 105%; viability, T/C [16]: 106%; viability, T/C [17]: 82.4%; viability, T/C [18]: 95.1%; viability, T/C [19]: 74.5%; viability, T/C [20]: 78.5%; viability, T/C [21]: 93%; viability, T/C [22]: 77.4%; viability, T/C [23]: 95.9%; viability, T/C [24]: 86.2%; viability, T/C [25]: 41.5%; viability, T/C [26]: 54.3%; viability, T/C [27]: 40.1%; viability, T/C [28]: 44%; viability, T/C [29]: 46.2%; viability, T/C [30]: 53.8%; viability, T/C [31]: 28.6%; viability, T/C [32]: 24.6%; viability, T/C [33]: 20.2%; viability, T/C [34]: 21.7%; viability, T/C [35]: 25.9%; viability, T/C [36]: 27.5%; viability, T/C [37]: 17.1%; viability, T/C [38]: 17%; viability, T/C [39]: 18.3%; viability, T/C [40]: 19.2%; viability, T/C [41]: 16.9%; viability, T/C [42]: 20.5%

What does the source list for `Cn1cnc2c(F)c(Nc3ccc(Br)cc3Cl)c(C(=O)NOCCO)cc21`?
viability, T/C (compound 0.00949 µM): 33.8% and 34.9% and 45.8%; viability, T/C (compound 0.03 µM): 32.3% and 27.6% and 36%; viability, T/C (compound 0.0949 µM): 12.5% and 23.4% and 29.8%; viability, T/C (compound 0.3 µM): 30.7% and 22.9% and 24.5%; viability, T/C (compound 0.949 µM): 16.1% and 18.4% and 20.9%; viability, T/C (compound 3 µM): 9.65% and 10.9% and 16.8%; IC50 (curve of compound): < 0.00949 µM
